The target of data set [1] is T1, mouse A1AR (Mus musculus, UniProt Q60612).
T1 sequence (Q60612 1-326): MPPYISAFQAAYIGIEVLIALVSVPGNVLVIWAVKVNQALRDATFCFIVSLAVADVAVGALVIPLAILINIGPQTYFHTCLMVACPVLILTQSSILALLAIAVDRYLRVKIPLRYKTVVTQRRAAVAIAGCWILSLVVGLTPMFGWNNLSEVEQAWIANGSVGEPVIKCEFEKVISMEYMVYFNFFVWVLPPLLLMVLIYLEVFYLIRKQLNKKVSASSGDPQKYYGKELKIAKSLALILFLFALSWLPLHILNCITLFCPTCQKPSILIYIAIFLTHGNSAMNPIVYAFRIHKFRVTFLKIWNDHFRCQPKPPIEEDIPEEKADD
The data set can be described thus: Radioligand binding, mouse A1AR.

The target in another data set is T2, mouse A3AR (Mus musculus, UniProt Q61618).
T2 sequence (Q61618 1-319): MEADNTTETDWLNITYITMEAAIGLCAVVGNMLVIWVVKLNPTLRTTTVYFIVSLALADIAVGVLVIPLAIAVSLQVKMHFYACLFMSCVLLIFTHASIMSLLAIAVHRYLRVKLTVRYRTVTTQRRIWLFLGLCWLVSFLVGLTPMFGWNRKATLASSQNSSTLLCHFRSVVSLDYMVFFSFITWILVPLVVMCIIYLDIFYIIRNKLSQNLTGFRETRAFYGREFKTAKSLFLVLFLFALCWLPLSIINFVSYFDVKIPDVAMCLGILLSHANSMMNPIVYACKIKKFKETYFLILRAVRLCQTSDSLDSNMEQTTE
In words: Radioligand binding, mouse A3AR. To be noted: read-out: % inhibition at 10 μM, mouse A3AR.

A further data set concerns the target mouse A2AAR (Mus musculus, UniProt Q60613). The data set can be described thus: Radioligand binding, mouse A2AAR.
For another data set, the target named is A2BAR. To be noted: read-out: Ki, A2BAR (h); human; ref Gao et al., 2001; cited from earlier work.
Data set [2] deals with T1, mouse A1AR. To be noted: A1AR vs A3AR; ref Carlin et al., 2017; cited from earlier work.
The subject of data set [3] is mice. The data set can be described thus: Telemetric monitoring of Tb and physical activity in mice. Type of data set: in vivo, mouse.
Data set [4] has as its system mice. Particulars: cited from earlier work.
Data set [5] deals with 45 human receptors, channels, and transporters. The data set can be described thus: PDSP off-target screen, whole panel. Type of data set: binding. To be noted: at <10 μM.
For data set [6] the following is noted: ref Nikodijevic et al., 1990; cited from earlier work.
For data set [7], the system named is mice. In words: Indirect calorimetry. Particulars: CGS-21680 0.25 mg/kg, i.p.; C57BL/6J mice.
Data set [8] has as its system mice. Particulars: intraarterial CGS-21680; wild type mice; ref Ledent et al., 1997; cited from earlier work.
[9] abbreviates: preladenant 1 mg/kg, i.p., alone, data not shown.
The mark [10] stands for this setting: CGS-21680 0.01–1 mg/kg, i.p., C57BL/6J mice.

The structures appear in SMILES notation. Where two headings read alike, the source gives them in different places.

Sequence of mouse A2AAR (Q60613 whole entry): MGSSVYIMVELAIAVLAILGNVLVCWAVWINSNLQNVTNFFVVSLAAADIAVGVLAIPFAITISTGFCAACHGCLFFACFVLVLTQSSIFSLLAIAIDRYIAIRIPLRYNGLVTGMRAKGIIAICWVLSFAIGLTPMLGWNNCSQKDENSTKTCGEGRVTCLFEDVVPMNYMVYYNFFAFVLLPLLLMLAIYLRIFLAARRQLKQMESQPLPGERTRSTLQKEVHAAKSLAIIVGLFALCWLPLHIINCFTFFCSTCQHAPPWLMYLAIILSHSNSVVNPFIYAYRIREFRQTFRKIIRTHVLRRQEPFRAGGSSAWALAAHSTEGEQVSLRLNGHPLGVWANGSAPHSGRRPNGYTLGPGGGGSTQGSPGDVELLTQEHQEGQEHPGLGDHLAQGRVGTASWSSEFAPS

Turning to `CNC(=O)c1cnn(-c2nc(N)c3ncn([C@@H]4O[C@H](CO)[C@@H](O)[C@H]4O)c3n2)c1` [regadenoson, 1-[6-amino-9-[(2R,3R,4S,5R)-3,4-dihydroxy-5-(hydroxymethyl)oxolan-2-yl]purin-2-yl]-N-methylpyrazole-4-carboxamide], the results for the Ki at mouse A1AR [1], on mouse A2AAR and on A2BAR were 7.75 ± 0.05 nM, 77.2 ± 6.3 nM and over 100000 nM, respectively. For the same molecule, the “binding to A1AR more tightly than to A2AAR” value on mouse A1AR [1] (mouse binding, Table 1) is reported as 10 fold. In addition, the “binding to mouse A1AR better than human A1AR” value at mouse A1AR [1] (mouse vs human A1AR (human value Gao et al., 2001)) was over 1000 fold. The inhibition at 10 µM on mouse A3AR was 7 ± 2%.
Consider `OC[C@H]1O[C@@H](n2cnc3c(NC4CCCC4)ncnc32)[C@H](O)[C@@H]1O` [N^6-cyclopentyladenosine], for which, on mouse A1AR [2], the “advantage in binding affinity (A1AR vs A3AR)” value is 2000 fold.
For the molecule `Nc1ncnc2c1ncn2[C@@H]1O[C@H](CO)[C@@H](O)[C@H]1O` [adenosine], in the data set with mice [3] (adenosine 100 mg/kg, i.p., Adora1−/−;Adora3−/− mice), the “Tb response (hypothermia)” value is “robust hypothermia”.
On to `CCN(CC)CC.Nc1nc2c(cnn2CCCc2ccc(OCc3ccc(S(=O)(=O)O)cc3)cc2)c2nc(-c3ccco3)nn12` [MRS7352, 4-((4-(3-(5-amino-2-(furan-2-yl)-7H-pyrazolo[4,3-e][1,2,4]triazolo[1,5-c]pyrimidin-7-yl)propyl)phenoxy)methyl)benzenesulfonate triethylammonium salt], for which the physical activity entry in the data set on mice [3] (MRS7352 3 mg/kg, i.p.) is on record as “without affecting physical activity”. In addition, in the data set with mice [3] (MRS7352 3 mg/kg, i.p. at -15 min, then PSB-0777 1 mg/kg i.p.), the “block of PSB-0777-induced hypothermia” value is listed as “completely blocked”.
Turning to `COCCOc1ccc(N2CCN(CCn3ncc4c3nc(N)n3nc(-c5ccco5)nc43)CC2)cc1` [preladenant], in the data set with mice [3] (setting [9]), the Tb entry was “increase in Tb” and the locomotor activity entry is “increased locomotor activity”.
As to `CCNC(=O)[C@H]1O[C@@H](n2cnc3c(N)nc(NCCc4ccc(CCC(=O)O)cc4)nc32)[C@H](O)[C@@H]1O` [CGS-21680, 2-[p-(2-carboxyethyl)phenethylamino]-5′-N-ethylcarboxamidoadenosine], the hypothermia entry in the data set on mice [4] (CGS-21680, high i.c.v. dose, ref Anderson et al., 1994) is listed as “mild hypothermia”; in the data set with mice [4] (CGS-21680, peripheral dosing, ref Eisner et al., 2017) it was “mild hypothermia”. Further, the “Tb response (hypothermia)” value with mice [3] (CGS-21680 0.01 mg/kg i.c.v., C57BL/6J mice) was “No hypothermia”; with mice [3] (CGS-21680 0.5 mg/kg, i.p., Adora1−/−;Adora3−/− mice), “intact”; with mice [3] (CGS-21680 0.5 mg/kg, i.p., Adora2a−/− mice), “did not cause hypothermia”; in the data set on mice [3] (CGS-21680 0.5 mg/kg, i.p., KitW−sh/W−sh mice (lack mast cells)), “showed a hypothermic response”; in the data set with mice [3] (setting [10]) it was “dose-dependent hypothermia”. In the data set with mice [3] (setting [10]), the physical activity result is reported as “hypoactivity”. For the same molecule, the off-target activities detected entry in [5] is recorded as “none”. The brain penetrant entry in data set [6] is “no ^d”. Further, in the data set on mice [7], the food intake entry is listed as “reduced food intake”. For the same molecule, in the data set with mice [7], the “metabolic rate (total energy expenditure)” value was “marked reduction in metabolic rate”. Further, the “time of Tb nadir” value with mice [7] was ~ 65 minutes. The “time of energy expenditure nadir” value with mice [7] is on record as ~ 26 minutes. For the same molecule, in the data set with mice [8], the blood pressure result is listed as “caused hypotension”.

A word on the Ki: it is a measure of affinity in units of concentration, obtained from inhibition or displacement. Broadly, the inhibition is the relative decrease from the control value, in per cent.
